# Measurements as given in patent US12052991B2, “Substituted pyridinyloxybenzenes and salts thereof and use thereof as herbicidal agents” (Bayer Aktiengesellschaft, priority 2018, dated 2024).
# System: Matricaria inodora (MATIN)
# Assay: Herbicidal pre-emergence action, test C (Table C7)
# Type: in vivo
# Conditions: dosage 320 g/ha; visual scoring after about 3 weeks; 100% = plants have died, 0% = like control plants
# In short: (§1)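 After sowing weed seeds into sandy loam and covering them, the soil surface was treated with aqueous WP or EC preparations containing 0.5% additive, 600 L/ha, at 1280 or 320 g/ha. Scoring was visual, in percent against untreated, at about 3 weeks.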
row,Structure (SMILES),Pre-emergence action against Matricaria inodora (MATIN) [%]
1,FC(F)c1cc(-c2ccccc2Oc2ccc(Cl)cn2)on1 [Example 1-35],90

# Same assay, conditions: dosage 1280 g/ha; visual scoring after about 3 weeks; 100% = plants have died, 0% = like control plants
row,Structure (SMILES),Pre-emergence action against Matricaria inodora (MATIN) [%]
1,FC(F)c1cc(-c2ccccc2Oc2ccc(Cl)cn2)on1 [Example 1-35],100

# System: Bassia scoparia (KCHSC)
# Assay: Herbicidal post-emergence action (Table B11)
# Type: in vivo
# Conditions: dosage 320 g/ha; visual rating about 3 weeks after treatment; 100% = plants have died, 0% = like control plants
# In short: (§2)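 Application rates of 1280 or 320 g/ha were tested post-emergence on one-leaf-stage greenhouse plants in sandy loam, using WP or EC formulations with 0.5% additive at 600 L/ha. Activity was rated visually against untreated plants about 3 weeks later.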
row,Structure (SMILES),Post-emergence action against Bassia scoparia (KCHSC) [%]
1,Fc1cc(Cl)cnc1Oc1ccccc1-c1cc(C(F)F)no1 [Example 1-36],100
2,FC(F)c1cc(-c2ccccc2Oc2ccc(Cl)cn2)on1 [Example 1-35],100

# Same assay, conditions: dosage 1280 g/ha; visual rating about 3 weeks after treatment; 100% = plants have died, 0% = like control plants
row,Structure (SMILES),Post-emergence action against Bassia scoparia (KCHSC) [%]
1,Fc1cc(Cl)cnc1Oc1ccccc1-c1cc(C(F)F)no1 [Example 1-36],100
2,FC(F)c1cc(-c2ccccc2Oc2ccc(Cl)cn2)on1 [Example 1-35],100

# System: Digitaria sanguinalis (DIGSA)
# Assay: Herbicidal pre-emergence action, test D, single sowings (Table D2)
# Type: in vivo
# Conditions: 80 g/ha; scored visually after about 3 weeks; 100% = plants have died, 0% = like control plants
# Text: (§3) Seeds of monocotyledonous and dicotyledonous weed plants were laid out in plastic or organic plant pots (single sowings with one species of mono- or dicotyledonous weed plant per pot) and covered with soil. The compounds of the invention, formulated in the form of wettable powders (WP) or as emulsion concentrates (EC), were then applied to the surface of the covering soil as aqueous suspension or emulsion with addition of 0.5% additive at a water application rate equivalent to 600 l/ha (converted). After the treatment, the pots were placed in a greenhouse and kept under good growth conditions for the test plants. After about 3 weeks, the effect of the preparations was scored visually in comparison with untreated controls as percentages. For example, 100% activity=the plants have died, 0% activity=like control plants. Tables D1 to D8 below show the effects of selected compounds of the general formula (I) according to Table 1 on various harmful plants and an application rate corresponding to 80 g/ha, which were obtained by the experimental procedure mentioned above.
row,Structure (SMILES),Pre-emergence action against Digitaria sanguinalis (DIGSA) [%]
1,Fc1cc(Cl)cnc1Oc1ccccc1-c1cc(C(F)F)no1 [Example 1-36],100
2,FC(F)c1cc(-c2ccccc2Oc2ccc(Cl)cn2)on1 [Example 1-35],100

# System: Bassia scoparia (KCHSC)
# Assay: Herbicidal pre-emergence action, test C (Table C11)
# Type: in vivo
# Conditions: dosage 1280 g/ha, visual scoring vs untreated controls
# In short: as §1
row,Structure (SMILES),Pre-emergence action against Bassia scoparia (KCHSC) [%]
1,Fc1cc(Cl)cnc1Oc1ccccc1-c1cc(C(F)F)no1 [Example 1-36],90
2,FC(F)c1cc(-c2ccccc2Oc2ccc(Cl)cn2)on1 [Example 1-35],90

# System: soybean (GLXMA, var. Sultana)
# Assay: Pre-emergence crop plant compatibility (Table E1)
# Type: in vivo
# Conditions: dosage 80 g/ha, scored after about 3 weeks, 0% = like control plants
# Text: as §3, with “crop” for “weed”, “placed” for “laid out”, “pots” for “pots (single sowings with one species of mono- or dicotyledonous weed plant per pot)”, “plants.” for “plants. Tables D1 to D8 below show the effects of selected compounds of the general formula (I) according to Table 1 on various harmful plants and an application rate corresponding to 80 g/ha, which were obtained by the experimental procedure mentioned above.”
row,Structure (SMILES),"Crop plant compatibility in pre-emergence, GLXMA (damage to soybean) [%]"
1,Fc1cc(Cl)cnc1Oc1ccccc1-c1cc(C(F)F)no1 [Example 1-36],10
2,FC(F)c1cc(-c2ccccc2Oc2ccc(Cl)cn2)on1 [Example 1-35],20

# System: corn (ZEAMX, var. Aventura)
# Assay: Pre-emergence crop plant compatibility (Table E1)
# Type: in vivo
# Conditions: dosage 80 g/ha, scored after about 3 weeks, 0% = like control plants
# Text: as §3, with “crop” for “weed”, “placed” for “laid out”, “pots” for “pots (single sowings with one species of mono- or dicotyledonous weed plant per pot)”, “plants.” for “plants. Tables D1 to D8 below show the effects of selected compounds of the general formula (I) according to Table 1 on various harmful plants and an application rate corresponding to 80 g/ha, which were obtained by the experimental procedure mentioned above.”
row,Structure (SMILES),"Crop plant compatibility in pre-emergence, ZEAMX (damage to corn) [%]"
1,Fc1cc(Cl)cnc1Oc1ccccc1-c1cc(C(F)F)no1 [Example 1-36],20
2,FC(F)c1cc(-c2ccccc2Oc2ccc(Cl)cn2)on1 [Example 1-35],10

# System: wheat (TRZAS, var. Triso)
# Assay: Pre-emergence crop plant compatibility (Table E1)
# Type: in vivo
# Conditions: dosage 80 g/ha, scored after about 3 weeks, 0% = like control plants
# Text: as §3, with “crop” for “weed”, “placed” for “laid out”, “pots” for “pots (single sowings with one species of mono- or dicotyledonous weed plant per pot)”, “plants.” for “plants. Tables D1 to D8 below show the effects of selected compounds of the general formula (I) according to Table 1 on various harmful plants and an application rate corresponding to 80 g/ha, which were obtained by the experimental procedure mentioned above.”
row,Structure (SMILES),"Crop plant compatibility in pre-emergence, TRZAS (damage to wheat) [%]"
1,Fc1cc(Cl)cnc1Oc1ccccc1-c1cc(C(F)F)no1 [Example 1-36],0
2,FC(F)c1cc(-c2ccccc2Oc2ccc(Cl)cn2)on1 [Example 1-35],0

# System: Digitaria sanguinalis (DIGSA)
# Assay: Herbicidal pre-emergence action, test C (Table C10)
# Type: in vivo
# Conditions: dosage 320 g/ha; visual scoring after about 3 weeks; 100% = plants have died, 0% = like control plants
# In short: as §1
row,Structure (SMILES),Pre-emergence action against Digitaria sanguinalis (DIGSA) [%]
1,Fc1cc(Cl)cnc1Oc1ccccc1-c1cc(C(F)F)no1 [Example 1-36],100

# Same assay, conditions: dosage 1280 g/ha; visual scoring after about 3 weeks; 100% = plants have died, 0% = like control plants
row,Structure (SMILES),Pre-emergence action against Digitaria sanguinalis (DIGSA) [%]
1,Fc1cc(Cl)cnc1Oc1ccccc1-c1cc(C(F)F)no1 [Example 1-36],100
2,FC(F)c1cc(-c2ccccc2Oc2ccc(Cl)cn2)on1 [Example 1-35],100

# System: viola tricolor (VIOTR)
# Assay: Herbicidal pre-emergence action, test D, single sowings (Table D7)
# Type: in vivo
# Conditions: dosage 80 g/ha, scored after about 3 weeks
# Text: as §3
row,Structure (SMILES),Pre-emergence action against viola tricolor (VIOTR) [%]
1,Fc1cc(Cl)cnc1Oc1ccccc1-c1cc(C(F)F)no1 [Example 1-36],100
2,FC(F)c1cc(-c2ccccc2Oc2ccc(Cl)cn2)on1 [Example 1-35],90

# System: Veronica persica (VERPE)
# Assay: Herbicidal pre-emergence action, test C (Table C12)
# Type: in vivo
# Conditions: dosage 320 g/ha, visual scoring vs untreated controls
# In short: as §1
row,Structure (SMILES),Pre-emergence action against Veronica persica (VERPE) [%]
1,Fc1cc(Cl)cnc1Oc1ccccc1-c1cc(C(F)F)no1 [Example 1-36],100
2,FC(F)c1cc(-c2ccccc2Oc2ccc(Cl)cn2)on1 [Example 1-35],100

# Same assay, conditions: dosage 1280 g/ha, visual scoring vs untreated controls
row,Structure (SMILES),Pre-emergence action against Veronica persica (VERPE) [%]
1,Fc1cc(Cl)cnc1Oc1ccccc1-c1cc(C(F)F)no1 [Example 1-36],100
2,FC(F)c1cc(-c2ccccc2Oc2ccc(Cl)cn2)on1 [Example 1-35],100

# System: Digitaria sanguinalis (DIGSA)
# Assay: Herbicidal post-emergence action (Table B10)
# Type: in vivo
# Conditions: dosage 320 g/ha; visual rating about 3 weeks after treatment; 100% = plants have died, 0% = like control plants
# In short: as §2
row,Structure (SMILES),Post-emergence action against Digitaria sanguinalis (DIGSA) [%]
1,Fc1cc(Cl)cnc1Oc1ccccc1-c1cc(C(F)F)no1 [Example 1-36],100
2,FC(F)c1cc(-c2ccccc2Oc2ccc(Cl)cn2)on1 [Example 1-35],90

# Same assay, conditions: dosage 1280 g/ha; visual rating about 3 weeks after treatment; 100% = plants have died, 0% = like control plants
row,Structure (SMILES),Post-emergence action against Digitaria sanguinalis (DIGSA) [%]
1,Fc1cc(Cl)cnc1Oc1ccccc1-c1cc(C(F)F)no1 [Example 1-36],100
2,FC(F)c1cc(-c2ccccc2Oc2ccc(Cl)cn2)on1 [Example 1-35],100

# System: Setaria viridis (SETVI)
# Assay: Herbicidal pre-emergence action, test D, single sowings (Table D3)
# Type: in vivo
# Conditions: dosage 80 g/ha, scored after about 3 weeks
# Text: as §3
row,Structure (SMILES),Pre-emergence action against Setaria viridis (SETVI) [%]
1,Fc1cc(Cl)cnc1Oc1ccccc1-c1cc(C(F)F)no1 [Example 1-36],80
2,FC(F)c1cc(-c2ccccc2Oc2ccc(Cl)cn2)on1 [Example 1-35],100

# System: Veronica persica (VERPE)
# Assay: Herbicidal post-emergence action (Table B12)
# Type: in vivo
# Conditions: dosage 320 g/ha; visual rating about 3 weeks after treatment; 100% = plants have died, 0% = like control plants
# In short: as §2
row,Structure (SMILES),Post-emergence action against Veronica persica (VERPE) [%]
1,Fc1cc(Cl)cnc1Oc1ccccc1-c1cc(C(F)F)no1 [Example 1-36],100
2,FC(F)c1cc(-c2ccccc2Oc2ccc(Cl)cn2)on1 [Example 1-35],100

# Same assay, conditions: dosage 1280 g/ha; visual rating about 3 weeks after treatment; 100% = plants have died, 0% = like control plants
row,Structure (SMILES),Post-emergence action against Veronica persica (VERPE) [%]
1,Fc1cc(Cl)cnc1Oc1ccccc1-c1cc(C(F)F)no1 [Example 1-36],100
2,FC(F)c1cc(-c2ccccc2Oc2ccc(Cl)cn2)on1 [Example 1-35],100

# System: Alopecurus myosuroides (ALOMY)
# Assay: Herbicidal pre-emergence action, test C (Table C9)
# Type: in vivo
# Conditions: dosage 320 g/ha; visual scoring after about 3 weeks; 100% = plants have died, 0% = like control plants
# In short: as §1
row,Structure (SMILES),Pre-emergence action against Alopecurus myosuroides (ALOMY) [%]
1,Fc1cc(Cl)cnc1Oc1ccccc1-c1cc(C(F)F)no1 [Example 1-36],90

# Same assay, conditions: dosage 1280 g/ha; visual scoring after about 3 weeks; 100% = plants have died, 0% = like control plants
row,Structure (SMILES),Pre-emergence action against Alopecurus myosuroides (ALOMY) [%]
1,Fc1cc(Cl)cnc1Oc1ccccc1-c1cc(C(F)F)no1 [Example 1-36],100
2,FC(F)c1cc(-c2ccccc2Oc2ccc(Cl)cn2)on1 [Example 1-35],90

# System: Veronica persica (VERPE)
# Assay: Herbicidal pre-emergence action, test D, single sowings (Table D8)
# Type: in vivo
# Conditions: dosage 80 g/ha, scored after about 3 weeks
# Text: as §3
row,Structure (SMILES),Pre-emergence action against Veronica persica (VERPE) [%]
1,Fc1cc(Cl)cnc1Oc1ccccc1-c1cc(C(F)F)no1 [Example 1-36],100
2,FC(F)c1cc(-c2ccccc2Oc2ccc(Cl)cn2)on1 [Example 1-35],100

# System: soybean (GLXMA, var. Sultana), wheat (TRZAS, var. Triso) and corn (ZEAMX, var. Aventura)
# Assay: Pre-emergence crop plant compatibility, summary of Table E1
# Type: in vivo
# Conditions: applied pre-emergence to soybean, wheat and corn at 80 g of active ingredient per hectare; summary in words
# Text: as §3, with “crop” for “weed”, “placed” for “laid out”, “pots” for “pots (single sowings with one species of mono- or dicotyledonous weed plant per pot)”, “plants.” for “plants. Tables D1 to D8 below show the effects of selected compounds of the general formula (I) according to Table 1 on various harmful plants and an application rate corresponding to 80 g/ha, which were obtained by the experimental procedure mentioned above.”
row,Structure (SMILES),crop plant tolerance in comparison with structurally similar pyrimidinyloxybenzenes (US 2016/333000 Ex. Nos. 53 and 144)
1,Fc1cc(Cl)cnc1Oc1ccccc1-c1cc(C(F)F)no1 [Example 1-36],significantly improved crop plant tolerance
2,FC(F)c1cc(-c2ccccc2Oc2ccc(Cl)cn2)on1 [Example 1-35],significantly improved crop plant tolerance

# System: Alopecurus myosuroides (ALOMY)
# Assay: Herbicidal post-emergence action (Table B9)
# Type: in vivo
# Conditions: 320 g/ha; rated visually after about 3 weeks; 100% = plants have died, 0% = like control plants
# In short: as §2
row,Structure (SMILES),Post-emergence action against Alopecurus myosuroides (ALOMY) [%]
1,Fc1cc(Cl)cnc1Oc1ccccc1-c1cc(C(F)F)no1 [Example 1-36],100
2,FC(F)c1cc(-c2ccccc2Oc2ccc(Cl)cn2)on1 [Example 1-35],100

# Same assay, conditions: 1280 g/ha; rated visually after about 3 weeks; 100% = plants have died, 0% = like control plants
row,Structure (SMILES),Post-emergence action against Alopecurus myosuroides (ALOMY) [%]
1,Fc1cc(Cl)cnc1Oc1ccccc1-c1cc(C(F)F)no1 [Example 1-36],100
2,FC(F)c1cc(-c2ccccc2Oc2ccc(Cl)cn2)on1 [Example 1-35],100

# System: Abutilon theophrasti (ABUTH)
# Assay: Herbicidal pre-emergence action, test D, single sowings (Table D4)
# Type: in vivo
# Conditions: dosage 80 g/ha, scored after about 3 weeks
# Text: as §3
row,Structure (SMILES),Pre-emergence action against Abutilon theophrasti (ABUTH) [%]
1,Fc1cc(Cl)cnc1Oc1ccccc1-c1cc(C(F)F)no1 [Example 1-36],100
2,FC(F)c1cc(-c2ccccc2Oc2ccc(Cl)cn2)on1 [Example 1-35],80
